For assay [1], the target named is T1, HIV-2 IN G140S/Q148R (T3) (Human immunodeficiency virus type 2 subtype A, UniProt P04584, A1212T/E1378D/G1311S/I1304V/I1351V/I1372T/M1463V/Q1319R/R1205K/R1395Q/S1188G/S1210T/T1231V/V1190I).
T1 construct: His-tag (pET-15b) (N); made in house; host or cells: Escherichia coli BL21-CodonPlus (DE3)-RIPL
T1 sequence (P04584 1172-1464 S1188G/V1190I/R1205K/S1210T/A1212T/T1231V/I1304V/G1311S/Q1319R/I1351V/I1372T/E1378D/R1395Q/M1463V): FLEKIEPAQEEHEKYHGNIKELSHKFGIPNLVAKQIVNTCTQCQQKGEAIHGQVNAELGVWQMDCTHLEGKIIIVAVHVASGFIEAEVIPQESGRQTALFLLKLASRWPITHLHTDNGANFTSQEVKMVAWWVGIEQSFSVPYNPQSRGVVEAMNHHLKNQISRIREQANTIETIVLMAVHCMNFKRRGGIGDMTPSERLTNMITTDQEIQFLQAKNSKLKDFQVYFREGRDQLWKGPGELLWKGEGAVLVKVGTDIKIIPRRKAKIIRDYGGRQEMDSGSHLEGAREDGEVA
As to the kind of experiment: strand transfer inhibition, IN from clinical isolate T3. The assay is classed as biochemical. As to conditions: clinical isolate T3, G140S/Q148R double mutant; IC50 not reached at concentrations up to 1 μM. As to the method: (§1) Activity is expressed as a % of control without drug. Experiments were performed two times.
(§2) The HIV-2 ODN substrate sequences were: UA: 5'-[…]-3'; U5B: 5'-[…]-3'; U5B-2: 5'-[…] […]-3'.

The target in a further assay is T2, HIV-2 IN E92Q/Y143C (Human immunodeficiency virus type 2 subtype B, UniProt Q89928, E1260Q/I1218V/I1301V/I1372V/M1455R/N1185G/N1438H/R1202K/R1392Q/T1348V/T1383A/V1460M/Y1311C).
T2 construct: His-tag (pET-15b) (N); made in house; host or cells: Escherichia coli BL21-CodonPlus (DE3)-RIPL
T2 sequence (Q89928 with tags, fused parts or gaps N1185G/R1202K/I1218V/E1260Q/I1301V/Y1311C/T1348V/I1372V/T1383A/R1392Q/N1438H/M1455R/V1460M): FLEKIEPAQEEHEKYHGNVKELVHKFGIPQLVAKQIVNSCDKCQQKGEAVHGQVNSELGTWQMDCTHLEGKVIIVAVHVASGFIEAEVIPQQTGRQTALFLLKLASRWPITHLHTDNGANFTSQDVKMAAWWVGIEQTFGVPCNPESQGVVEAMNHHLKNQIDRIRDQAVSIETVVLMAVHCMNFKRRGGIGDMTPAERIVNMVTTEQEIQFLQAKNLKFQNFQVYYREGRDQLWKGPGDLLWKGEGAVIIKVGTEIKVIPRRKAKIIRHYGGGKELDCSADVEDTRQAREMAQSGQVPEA
Put plainly: strand transfer inhibition, site-directed mutant in N1 background. Type of assay: biochemical. As to conditions: E92Q/Y143C double mutant in N1 background; 200 nM IN. As to the method:
as §1
(§3) Primer 1: N1, N2, T1, T2, 5'-[…]-3'; N3, 5'-[…] […]-3'; T3-T7, 5'-[…]-3'. Primers 2: N1, 5'-[…]-3'; N2, 5'-[…] […]-3'; N3, 5'-[…] C-3'; T1, T2, 5'-[…]-3'; T3-T7, 5'-GGATC […] -3'.
as §2

The target of the next assay is T3, HIV-2 IN G140S (Human immunodeficiency virus type 2 subtype B, UniProt Q89928, G1308S/I1218V/I1301V/I1372V/M1455R/N1185G/N1438H/R1202K/R1392Q/T1348V/T1383A/V1460M).
T3 construct: His-tag (pET-15b) (N); made in house; host or cells: Escherichia coli BL21-CodonPlus (DE3)-RIPL
T3 sequence (Q89928 with tags, fused parts or gaps N1185G/R1202K/I1218V/I1301V/G1308S/T1348V/I1372V/T1383A/R1392Q/N1438H/M1455R/V1460M): T2 sequence (Q89928 with tags, fused parts or gaps N1185G/R1202K/I1218V/E1260Q/I1301V/Y1311C/T1348V/I1372V/T1383A/R1392Q/N1438H/M1455R/V1460M) with Q92E, G140S, C143Y
The description is as above. As to conditions: 200 nM IN. The assay is classed as biochemical. As to the method:
as §1, §3, §2

The next assay addresses T4, HIV-2 IN Y143C/N155H (Human immunodeficiency virus type 2 subtype B, UniProt Q89928, I1218V/I1301V/I1372V/M1455R/N1185G/N1323H/N1438H/R1202K/R1392Q/T1348V/T1383A/V1460M/Y1311C).
T4 construct: His-tag (pET-15b) (N); made in house; host or cells: Escherichia coli BL21-CodonPlus (DE3)-RIPL
T4 sequence (Q89928 with tags, fused parts or gaps N1185G/R1202K/I1218V/I1301V/Y1311C/N1323H/T1348V/I1372V/T1383A/R1392Q/N1438H/M1455R/V1460M): T2 sequence (Q89928 with tags, fused parts or gaps N1185G/R1202K/I1218V/E1260Q/I1301V/Y1311C/T1348V/I1372V/T1383A/R1392Q/N1438H/M1455R/V1460M) with Q92E, N155H
The assay is described as above. Type of assay: biochemical. Conditions: Y143C/N155H double mutant in N1 background; 200 nM IN. As to the method:
as §1, §3, §2

The next assay has as its target T5, HIV-2 IN (N1 to N3) (Human immunodeficiency virus type 2 subtype B, UniProt Q89928, I1218V/I1301V/I1372V/M1455R/N1185G/N1438H/R1202K/R1392Q/T1348V/T1383A/V1460M).
T5 construct: His-tag (pET-15b) (N); made in house; host or cells: Escherichia coli BL21-CodonPlus (DE3)-RIPL
T5 sequence (Q89928 1169-1464 N1185G/R1202K/I1218V/I1301V/T1348V/I1372V/T1383A/R1392Q/N1438H/M1455R/V1460M limits assumed): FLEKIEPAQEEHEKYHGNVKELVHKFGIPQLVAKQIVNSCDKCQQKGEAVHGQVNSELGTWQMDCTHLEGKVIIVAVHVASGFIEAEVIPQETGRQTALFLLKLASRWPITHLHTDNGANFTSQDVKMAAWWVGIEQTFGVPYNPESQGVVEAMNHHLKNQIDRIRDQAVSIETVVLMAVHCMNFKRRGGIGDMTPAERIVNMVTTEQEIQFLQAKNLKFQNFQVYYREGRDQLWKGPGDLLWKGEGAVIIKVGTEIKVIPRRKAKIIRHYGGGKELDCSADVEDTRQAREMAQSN
Put plainly: 3'-processing inhibition, INs from clinical isolates N1 to N3. The assay is classed as biochemical. As to conditions: at concentrations up to 1 μM; data not shown. As to the method:
The activity of wild-type and mutated INs was determined in vitro, as previously described. Briefly, oligonucleotides (ODN) mimicking the end of the U5 long terminal repeat of the viral genome were radiolabeled with T4 polynucleotide kinase (Biolabs, Ipswich, USA) and [γ-^32P] ATP (3,000 Ci/mmol) (Amersham, GE Healthcare, USA), then purified on a Sephadex G-10 column (GE Healthcare, USA). Double-stranded ODNs were obtained by mixing equimolar amounts of complementary strands in the presence of 100 mM NaCl.

Another assay deals with wild-type HIV-2. As to conditions: phenotypic susceptibility similar to that of HIV-1; cited from earlier work.

Here are results for 1 compound from article PMC3170264 (Retrovirology, 2011).

The structures appear in SMILES notation. Positions count from the first letter of the chain named. A value given as a limit tells only on which side of the number the result lay.

By IC50 is commonly meant the concentration at which inhibition is half-maximal. A higher IC50 goes with weaker potency in that assay.

For the compound `Cc1nnc(C(=O)NC(C)(C)c2nc(C(=O)NCc3ccc(F)cc3)c(O)c(=O)n2C)o1` [RAL, raltegravir], the IC50 is above 1000 nM in assay [1], 370 nM against HIV-2 IN E92Q/Y143C and 290 nM against HIV-2 IN Y143C/N155H. Further, the “susceptibility to RAL, strand transfer” value at HIV-2 IN G140S was “as susceptible to RAL as the wild-type reference N1 enzyme”. Further, the “effect on 3' processing in vitro” value on HIV-2 IN (N1 to N3) was “no significant effect”. Further, the “activity against wild-type HIV-2” value in the assay with wild-type HIV-2 was “active”.
